Drawing on ChEMBL document CHEMBL1142780, “Phenylpyrroles, a new chemolibrary virtual screening class of 5-HT7 receptor ligands” (Bioorg Med Chem Lett, 2005), this text covers inhibition, Ki and PKb for 30 compounds.

Experiment [1] has as its target T1, 5-hydroxytryptamine receptor 7 (Homo sapiens, UniProt P34969). Description: Inhibition of the binding of [3H]LSD on human 5-HT7R expressed in sf9 cells at concentration of 10e-8 M.
In experiment [2] the target is T1, 5-hydroxytryptamine receptor 7. Description: Inhibition of the binding of [3H]LSD on human 5-HT7R expressed in sf9 cells at concentration of 10e-6 M.
For experiment [3], the target named is 5-hydroxytryptamine receptor 7 (Rattus norvegicus) (UniProt P32305). Description: Inhibition of the binding of [3H]LSD on rat 5-HT7R expressed in HEK293 cells at concentration of 10e-8 M. It counts as cell-based.
Experiment [4] has the same target. The experiment can be described thus: Inhibition of the binding of [3H]LSD on rat 5-HT7R expressed in HEK293 cells at concentration of 10e-6 M. The format is cell-based.
Experiment [5] has the same target. The experiment can be described thus: Inhibition of the binding of [3H]LSD on rat 5-HT7R in HEK293 cells at concentration of 10e-6 M. The format is cell-based.
For experiment [6] the target is unchanged. The experiment can be described thus: Inhibition of the binding of [3H]LSD on rat 5-HT7R in HEK293 cells at concentration of 10e-8 M. It counts as cell-based.
For experiment [7], the target named is 5-hydroxytryptamine receptor 6 (Homo sapiens) (UniProt P50406). Description: Inhibition of the binding of [3H]LSD (radioligand) on human 5-HT6 receptor at concentration of 10e-6 M.
In experiment [8] the target is T2, 5-hydroxytryptamine receptor 1A (Rattus norvegicus, UniProt P19327).
T2 sequence (P19327 whole entry): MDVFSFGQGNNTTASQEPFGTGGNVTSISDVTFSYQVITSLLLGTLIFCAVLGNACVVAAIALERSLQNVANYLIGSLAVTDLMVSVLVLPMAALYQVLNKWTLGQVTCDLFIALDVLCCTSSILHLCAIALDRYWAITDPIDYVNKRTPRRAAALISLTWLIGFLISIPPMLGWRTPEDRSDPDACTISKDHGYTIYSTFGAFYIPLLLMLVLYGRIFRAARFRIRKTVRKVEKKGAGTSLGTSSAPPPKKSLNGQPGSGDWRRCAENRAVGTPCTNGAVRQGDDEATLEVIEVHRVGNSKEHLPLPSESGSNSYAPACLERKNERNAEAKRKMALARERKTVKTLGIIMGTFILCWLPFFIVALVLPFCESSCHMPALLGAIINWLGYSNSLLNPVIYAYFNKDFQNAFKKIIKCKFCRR
Description: Binding affinity against rat 5-HT1A receptor.

Experiment [9] addresses T1, 5-hydroxytryptamine receptor 7. The experiment can be described thus: Binding affinity against Human 5-HT7R expressed in sf9 cells.
Experiment [10] concerns the target 5-hydroxytryptamine receptor 6 (Homo sapiens) (UniProt P50406). Description: Inhibition of the binding of [3H]LSD (radioligand) on human 5-HT6 receptor at concentration of 10e-8 M.
Experiment [11] addresses 5-hydroxytryptamine receptor 7 (Rattus norvegicus, UniProt P32305). Description: Binding affinity against rat 5-HT7R expressed in HEK293 cells. It counts as cell-based.
Experiment [12] has as its target T1, 5-hydroxytryptamine receptor 7.
Description: PKb value against Human 5-HT7 receptor

Chain of 5-hydroxytryptamine receptor 6 (Homo sapiens) (P50406 whole entry): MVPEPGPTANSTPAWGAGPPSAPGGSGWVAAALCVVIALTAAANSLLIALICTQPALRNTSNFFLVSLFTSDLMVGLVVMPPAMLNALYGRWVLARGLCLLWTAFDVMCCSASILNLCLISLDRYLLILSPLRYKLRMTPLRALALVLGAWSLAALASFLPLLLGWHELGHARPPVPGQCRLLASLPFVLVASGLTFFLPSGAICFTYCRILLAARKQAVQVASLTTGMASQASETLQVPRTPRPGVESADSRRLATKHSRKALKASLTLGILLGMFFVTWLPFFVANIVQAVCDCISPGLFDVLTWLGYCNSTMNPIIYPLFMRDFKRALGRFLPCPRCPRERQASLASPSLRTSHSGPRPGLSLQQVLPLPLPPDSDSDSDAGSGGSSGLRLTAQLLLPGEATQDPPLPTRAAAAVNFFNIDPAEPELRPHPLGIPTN
T1 sequence (P34969 whole entry): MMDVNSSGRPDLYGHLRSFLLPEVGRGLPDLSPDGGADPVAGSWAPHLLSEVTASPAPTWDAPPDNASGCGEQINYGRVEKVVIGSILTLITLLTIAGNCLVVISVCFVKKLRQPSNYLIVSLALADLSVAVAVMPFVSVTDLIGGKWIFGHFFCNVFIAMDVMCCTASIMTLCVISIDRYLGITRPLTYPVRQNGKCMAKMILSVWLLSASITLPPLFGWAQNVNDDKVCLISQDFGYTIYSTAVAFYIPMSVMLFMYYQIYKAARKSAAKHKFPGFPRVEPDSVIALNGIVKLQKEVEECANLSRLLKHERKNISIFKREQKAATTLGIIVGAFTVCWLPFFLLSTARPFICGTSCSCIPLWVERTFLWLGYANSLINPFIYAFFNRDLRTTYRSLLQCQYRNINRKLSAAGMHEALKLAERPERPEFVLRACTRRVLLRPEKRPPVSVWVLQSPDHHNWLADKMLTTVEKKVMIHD
Chain of 5-hydroxytryptamine receptor 7 (Rattus norvegicus, UniProt P32305) (P32305 whole entry): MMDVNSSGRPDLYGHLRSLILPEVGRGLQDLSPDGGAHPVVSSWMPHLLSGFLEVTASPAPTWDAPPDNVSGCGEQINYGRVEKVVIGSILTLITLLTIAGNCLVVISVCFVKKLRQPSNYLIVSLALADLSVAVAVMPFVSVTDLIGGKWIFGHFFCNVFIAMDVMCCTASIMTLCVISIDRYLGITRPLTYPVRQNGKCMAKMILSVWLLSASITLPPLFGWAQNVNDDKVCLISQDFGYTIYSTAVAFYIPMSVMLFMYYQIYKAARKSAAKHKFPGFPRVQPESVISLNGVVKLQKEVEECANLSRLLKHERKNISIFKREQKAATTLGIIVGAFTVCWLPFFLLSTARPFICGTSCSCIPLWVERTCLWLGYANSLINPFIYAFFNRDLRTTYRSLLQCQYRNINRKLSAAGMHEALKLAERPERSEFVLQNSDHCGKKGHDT
Chain of 5-hydroxytryptamine receptor 7 (Rattus norvegicus) (P32305 whole entry): as above

Regarding `c1ccc(N2CCN(Cc3cccn3-c3ccccc3)CC2)cc1`, the inhibition (as a rule, the share of the control response that was lost under treatment) in [1] is 14%; in experiment [2] it was 71%.
With `COc1ccc(-n2cccc2CCN)cc1`, the values for the inhibition in experiment [1] and in [2] were 3% and 36%, respectively.
`COc1ccccc1N1CCN(Cc2cccn2-c2cccc(C)c2C)CC1`: the inhibition in experiment [3] turned out to be 2%; in [4], 68%.
Taken in the same sequence, the figures for `COc1ccccc1N1CCN(Cc2cccn2-c2ccccc2-c2ccccc2)CC1` were 0% and 26%.
Regarding `N#Cc1ccccc1-n1ccc(CN2CCN(c3noc4ccccc34)CC2)c1`, the inhibition in experiment [5] was 34%; in experiment [6], 7%.
Consider `Cc1cccc(-n2cccc2CN2CCN(C)CC2)c1C`, for which the inhibition in experiment [3] worked out at 0%; in [4] it was 33%.
In the same order, the values of `N#Cc1ccccc1-n1cccc1CN1CCN(c2noc3ccccc23)CC1` are 1% and 43%.
`COc1ccccc1N1CCN(Cc2cccn2-c2ccccc2C)CC1`: the results for the inhibition in experiment [3] and in experiment [4] were 0% and 63%, respectively.
Take `Cc1cccc(-n2cccc2CCN)c1C`: the inhibition in experiment [1] is 0%; in experiment [2] it was 72%.
`NCCc1cccn1-c1ccccc1Cl`: the inhibition in [1] was found to be 0%; in experiment [2], 58%.
On to `COc1ccccc1N1CCN(Cc2ccn(-c3ccccc3OC)c2)CC1`, for which the inhibition stood at 6% in experiment [5] and 0% in experiment [6].
Consider `CCOc1ccc(OCC)c(-n2cccc2CCN)c1`, for which the figures for the inhibition in experiment [1] and in [2] were 0% and 14%, respectively.
Turning to `COc1ccccc1N1CCN(Cc2cccn2-c2ccccc2)CC1`, the inhibition in [1] was found to be 0%; in experiment [2], 91%.
On to `COc1ccccc1-n1cccc1CN1CCN(C)CC1`, for which the inhibition in experiment [3] amounted to 0%; in [4] it was 12%.
As to `COc1ccccc1N1CCN(Cc2ccn(-c3cccc(C)c3C)c2)CC1`, the results for the inhibition in experiment [5] and in experiment [6] were 91% and 0%, respectively.
Take `NCCc1cccn1-c1ccccc1`: the inhibition in experiment [1] came to 0%; in [2], 31%.
On to `COc1ccccc1N1CCN(Cc2ccn(-c3cccc4ccccc34)c2)CC1`, for which the inhibition in [5] was 86%; in experiment [6], 6%.
In the same order, the values of `Cc1ccccc1-n1ccc(CN2CCN(c3noc4ccccc34)CC2)c1` are 42% and 9%.
Taken in the same sequence, the figures for `COc1ccccc1N1CCN(Cc2ccn(-c3c(C)cc(C)cc3C)c2)CC1` were 32% and 0%.
For the compound `Cc1ccccc1-n1cccc1CN1CCN(c2noc3ccccc23)CC1`, the inhibition in [3] was determined as 0%; in [4], 47%.
As to `COc1ccccc1N1CCN(Cc2cccn2-c2ccc(Cl)cc2Cl)CC1`, the inhibition in experiment [1] came out at 0%; in experiment [2], 66%.
Taken in the same sequence, the figures for `COc1ccc(OC)c(-n2cccc2CCN)c1` were 6% and 31%.
For `COc1ccccc1N1CCN(Cc2ccn(-c3ccccc3C)c2)CC1`, the inhibition in [5] stood at 95%; in experiment [7], 9%; in experiment [10], 7%; in [6], 22%. Moreover, the Ki (in general, the dissociation constant of the complex between target and ligand, obtained from inhibition or displacement) in experiment [8] worked out at 9.9 nM; in experiment [9], 4.7 nM; in experiment [11], 21 nM.
As to `COc1ccccc1N1CCN(Cc2cccn2-c2ccccc2C(F)(F)F)CC1`, the inhibition came to 7% in experiment [3] and 38% in experiment [4].
Consider `COc1ccccc1N1CCN(Cc2ccn(-c3ccccc3C(F)(F)F)c2)CC1`, for which the inhibition in experiment [5] came out at 91%; in experiment [6] it was 21%. This compound also registered a Ki in experiment [11] of 105 nM.
Turning to `COc1ccccc1N1CCN(Cc2cccn2-c2ccccc2C#N)CC1`, the inhibition in experiment [3] is 0%; in [4], 24%.
As for `COC(=O)c1cccc(C)c1-n1ccc(CN2CCN(c3ccccc3OC)CC2)c1`, the PKb in experiment [12] is 7.66. In addition, the inhibition in [7] turned out to be 20%; in [10], 9%. Moreover, the results for the Ki in experiment [8] and in experiment [9] were 18.5 nM and 18 nM, respectively.
Regarding `COc1ccccc1N1CCN(Cc2cccn2-c2ccccc2OC)CC1`, the inhibition in [3] came to 16%; in experiment [4] it was 80%.
On to `COc1ccccc1N1CCN(Cc2ccn(-c3ccccc3C#N)c2)CC1`, for which the inhibition stood at 96% in experiment [5], 12% in experiment [7], 10% in [10] and 14% in experiment [6]. In experiment [12], this compound displayed a PKb of 7.43. Also, the Ki in experiment [8] was 33.7 nM; in experiment [9], 5.4 nM; in experiment [11] it was 19 nM.
On to `COc1ccccc1N1CCN(Cc2cccn2-c2cccc3ccccc23)CC1`, for which the inhibition was 17% in experiment [3] and 60% in experiment [4].
